In patent US11377442B2, “Small molecule agonists and antagonists of NR2F6 activity” (ZANDER THERAPEUTICS, INC., priority 2016, dated 2022):
Like-named read-outs stand apart in the source and are kept apart here.

Columns and labels:
Type in all cases: cell-based
Renilla = Renilla signal in NR2F6 agonist screening, cmpd/DMSO; conditions: Renilla, F4
HEK293 pGL4 = test: Firefly_pGL signal, cmpd/DMSO (pGL4 control cells); conditions: Homo sapiens
NR2F6 = target: T1, NR2F6 (Homo sapiens, UniProt P10588); test: NR2F6 agonist screening, Firefly signal cmpd/DMSO; conditions: for Activity, cmpd/DMSO: Table 31
T1 construct: expressed in transfected cells; also transient transfection
T1 sequence (P10588 1-404): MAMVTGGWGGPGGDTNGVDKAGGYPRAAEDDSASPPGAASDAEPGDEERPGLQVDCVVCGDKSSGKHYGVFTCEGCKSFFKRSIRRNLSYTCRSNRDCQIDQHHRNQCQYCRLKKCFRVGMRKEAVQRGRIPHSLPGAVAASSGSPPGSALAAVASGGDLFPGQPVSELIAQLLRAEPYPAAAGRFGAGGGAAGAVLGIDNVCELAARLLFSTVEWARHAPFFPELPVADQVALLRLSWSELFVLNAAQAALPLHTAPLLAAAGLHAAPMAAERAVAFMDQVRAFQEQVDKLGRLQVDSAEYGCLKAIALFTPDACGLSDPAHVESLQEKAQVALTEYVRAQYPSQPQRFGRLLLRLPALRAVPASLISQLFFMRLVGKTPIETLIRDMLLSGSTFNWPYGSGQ

NR2F6 LBD = target: T2, NR2F6 LBD (Homo sapiens, UniProt P10588); test: NR2F6 LBD transient transfection; conditions: LBD
T2 construct: expressed in transfected cells
T2 sequence (P10588 165-393 limits assumed): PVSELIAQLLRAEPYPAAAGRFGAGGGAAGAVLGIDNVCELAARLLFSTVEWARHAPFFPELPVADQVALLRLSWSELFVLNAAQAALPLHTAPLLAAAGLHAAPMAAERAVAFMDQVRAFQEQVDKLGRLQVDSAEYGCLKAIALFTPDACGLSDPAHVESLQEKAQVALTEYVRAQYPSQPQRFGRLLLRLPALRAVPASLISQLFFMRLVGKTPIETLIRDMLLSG
In short: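 LBD-transfected cells treated at 40, 10, 2 and 0.5 μM (4 replicates); cytotoxicity measured in parallel, normalized to DMSO (0%) and zero signal (100%). Higher concentrations excluded where signal loss reflected toxicity.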

[1] = read-out: Renilla, F4, cmpd/DMSO (mean)
[2] = 1% FBS, read-out: Renilla, F4, 1% FBS, cmpd/DMSO (mean)
[3] = 10% FBS, read-out: Renilla, F4, 10% FBS, cmpd/DMSO (mean)
[4] = HEK293, 0.5 uM, pGL4, read-out: Firefly pGL4, cmpd/DMSO (mean)
[5] = HEK293, 2 uM, pGL4, read-out: Firefly pGL4, cmpd/DMSO (mean)
[6] = HEK293, 10 uM, pGL4, read-out: Firefly pGL4, cmpd/DMSO (mean)
[7] = HEK293, 40 uM, pGL4, read-out: Firefly pGL4, cmpd/DMSO (mean)
[8] = HEK293, pGL4, 1% FBS, 0.5 uM, read-out: Firefly, pGL4, 1% FBS, cmpd/DMSO (mean)
[9] = HEK293, pGL4, 1% FBS, 2 uM, read-out: Firefly, pGL4, 1% FBS, cmpd/DMSO (mean)
[10] = HEK293, pGL4, 1% FBS, 10 uM, read-out: Firefly, pGL4, 1% FBS, cmpd/DMSO (mean)
[11] = HEK293, pGL4, 1% FBS, 40 uM, read-out: Firefly, pGL4, 1% FBS, cmpd/DMSO (mean)
[12] = HEK293, pGL4, 10% FBS, 0.5 uM, read-out: Firefly, pGL4, 10% FBS, cmpd/DMSO (mean)
[13] = HEK293, pGL4, 10% FBS, 2 uM, read-out: Firefly, pGL4, 10% FBS, cmpd/DMSO (mean)
[14] = HEK293, pGL4, 10% FBS, 10 uM, read-out: Firefly, pGL4, 10% FBS, cmpd/DMSO (mean)
[15] = HEK293, pGL4, 10% FBS, 40 uM, read-out: Firefly, pGL4, 10% FBS, cmpd/DMSO (mean)

CC1CCN([C@H]2CS(=O)(=O)C[C@@H]2S(=O)(=O)c2cccs2)CC1 [Compound D106] gave a fold induction at 0.5 µM (Renilla; [1]) of 1, a fold induction at 2 µM (Renilla; [1]) of 1.2 and a fold induction at 10 µM (Renilla; [1]) of 1.7. It also gave a fold induction at 40 µM (Renilla; [1]) of 0.5, a fold induction at 0.5 µM (Renilla; [2]) of 1.2 and a fold induction at 2 µM (Renilla; [2]) of 1.4. The fold induction at 10 µM (Renilla; [2]) was 1.9, the fold induction at 40 µM (Renilla; [2]) was 1.1 and the fold induction at 0.5 µM (Renilla; [3]) was 1.2. For the same compound, the fold induction at 2 µM (Renilla; [3]) was 1.1, the fold induction at 10 µM (Renilla; [3]) was 2 and the fold induction at 40 µM (Renilla; [3]) was 2. It also gave a fold induction at 0.5 µM (HEK293 pGL4; [4]) of 1.1, a fold induction at 2 µM (HEK293 pGL4; [5]) of 1.6 and a fold induction at 10 µM (HEK293 pGL4; [6]) of 3.6. The fold induction at 40 µM (HEK293 pGL4; [7]) was 0.7, the fold induction at 0.5 µM (HEK293 pGL4; [8]) was 1.1 and the fold induction at 2 µM (HEK293 pGL4; [9]) was 1.8. The fold induction at 10 µM (HEK293 pGL4; [10]) was 2.8, the fold induction at 40 µM (HEK293 pGL4; [11]) was 0.8 and the fold induction at 0.5 µM (HEK293 pGL4; [12]) was 0.9. The fold induction at 2 µM (HEK293 pGL4; [13]) was 1.2, the fold induction at 10 µM (HEK293 pGL4; [14]) was 2.7 and the fold induction at 40 µM (HEK293 pGL4; [15]) was 1.2. For the same compound, the “Firefly F4, cmpd/DMSO (mean)” value (NR2F6; 0.5 uM) was 1.5, the “Firefly F4, cmpd/DMSO (mean)” value (NR2F6; 2 uM) was 2.3 and the “Firefly F4, cmpd/DMSO (mean)” value (NR2F6; 10 uM) was 5.4. For the same compound, the “Firefly F4, cmpd/DMSO (mean)” value (NR2F6; 40 uM) was 0.8, the “F4, Firefly/Renilla for S/B(F4) > 3” value (NR2F6; 1% FBS, 10 uM) was 2.5 and the “Firefly, F4/pGL4 for S/B(F4) > 3” value (NR2F6; 1% FBS, 10 uM) was 1.7. The “F4, Firefly/Renilla for S/B(F4) > 3” value (NR2F6; 10% FBS, 10 uM) was 3.6, the “Firefly, F4/pGL4 for S/B(F4) > 3” value (NR2F6; 10% FBS, 10 uM) was 2.7 and the “Firefly, F4, 1% FBS, cmpd/DMSO (mean)” value (NR2F6; 1% FBS, 0.5 uM) was 0.9. For the same compound, the “Firefly, F4, 1% FBS, cmpd/DMSO (mean)” value (NR2F6; 1% FBS, 2 uM) was 1.9, the “Firefly, F4, 1% FBS, cmpd/DMSO (mean)” value (NR2F6; 1% FBS, 10 uM) was 4.6 and the “Firefly, F4, 1% FBS, cmpd/DMSO (mean)” value (NR2F6; 1% FBS, 40 uM) was 0.5. For the same compound, the “Firefly, F4, 10% FBS, cmpd/DMSO (mean)” value (NR2F6; 10% FBS, 0.5 uM) was 1.6, the “Firefly, F4, 10% FBS, cmpd/DMSO (mean)” value (NR2F6; 10% FBS, 2 uM) was 1.4 and the “Firefly, F4, 10% FBS, cmpd/DMSO (mean)” value (NR2F6; 10% FBS, 10 uM) was 7.1. The “Firefly, F4, 10% FBS, cmpd/DMSO (mean)” value (NR2F6; 10% FBS, 40 uM) was 1.7, the “Activity, cmpd/DMSO” value (NR2F6) was 5.2 and the “Firefly LBD, cmpd/DMSO (mean)” value (NR2F6 LBD; 0.5 uM) was 1.2. The “Firefly LBD, cmpd/DMSO (mean)” value (NR2F6 LBD; 2 uM) was 1.7, the “Firefly LBD, cmpd/DMSO (mean)” value (NR2F6 LBD; 10 uM) was 4.0 and the “Firefly LBD, cmpd/DMSO (mean)” value (NR2F6 LBD; 40 uM) was 0.7.
Work on C[C@@H]1C[C@H](C)CN([C@H]2CS(=O)(=O)C[C@@H]2S(=O)(=O)c2cccs2)C1 [Compound D109] yielded a fold induction at 0.5 µM (Renilla; [1]) of 1.1, a fold induction at 2 µM (Renilla; [1]) of 1.2 and a fold induction at 10 µM (Renilla; [1]) of 1.6. The fold induction at 40 µM (Renilla; [1]) was 0.5, the fold induction at 0.5 µM (Renilla; [2]) was 1 and the fold induction at 2 µM (Renilla; [2]) was 1.3. For the same compound, the fold induction at 10 µM (Renilla; [2]) was 1.7, the fold induction at 40 µM (Renilla; [2]) was 1.1 and the fold induction at 0.5 µM (Renilla; [3]) was 1. For the same compound, the fold induction at 2 µM (Renilla; [3]) was 1.2, the fold induction at 10 µM (Renilla; [3]) was 1.9 and the fold induction at 40 µM (Renilla; [3]) was 2.4. For the same compound, the fold induction at 0.5 µM (HEK293 pGL4; [4]) was 1, the fold induction at 2 µM (HEK293 pGL4; [5]) was 1.6 and the fold induction at 10 µM (HEK293 pGL4; [6]) was 3.6. For the same compound, the fold induction at 40 µM (HEK293 pGL4; [7]) was 0.5, the fold induction at 0.5 µM (HEK293 pGL4; [8]) was 1.2 and the fold induction at 2 µM (HEK293 pGL4; [9]) was 1.3. It also gave a fold induction at 10 µM (HEK293 pGL4; [10]) of 2.1, a fold induction at 40 µM (HEK293 pGL4; [11]) of 1.1 and a fold induction at 0.5 µM (HEK293 pGL4; [12]) of 1.4. For the same compound, the fold induction at 2 µM (HEK293 pGL4; [13]) was 1.2, the fold induction at 10 µM (HEK293 pGL4; [14]) was 2.2 and the fold induction at 40 µM (HEK293 pGL4; [15]) was 1.1. For the same compound, the “Firefly F4, cmpd/DMSO (mean)” value (NR2F6; 0.5 uM) was 1.3, the “Firefly F4, cmpd/DMSO (mean)” value (NR2F6; 2 uM) was 2.3 and the “Firefly F4, cmpd/DMSO (mean)” value (NR2F6; 10 uM) was 4.2. For the same compound, the “Firefly F4, cmpd/DMSO (mean)” value (NR2F6; 40 uM) was 0.4, the “F4, Firefly/Renilla for S/B(F4) > 3” value (NR2F6; 1% FBS, 10 uM) was 3.1 and the “Firefly, F4/pGL4 for S/B(F4) > 3” value (NR2F6; 1% FBS, 10 uM) was 2.6. For the same compound, the “F4, Firefly/Renilla for S/B(F4) > 3” value (NR2F6; 10% FBS, 10 uM) was 3.3, the “Firefly, F4/pGL4 for S/B(F4) > 3” value (NR2F6; 10% FBS, 10 uM) was 3.0 and the “F4, Firefly/Renilla for S/B(F4) > 3” value (NR2F6; 10% FBS, 40 uM) was 1.3. The “Firefly, F4/pGL4 for S/B(F4) > 3” value (NR2F6; 10% FBS, 40 uM) was 2.8, the “Firefly, F4, 1% FBS, cmpd/DMSO (mean)” value (NR2F6; 1% FBS, 0.5 uM) was 1.5 and the “Firefly, F4, 1% FBS, cmpd/DMSO (mean)” value (NR2F6; 1% FBS, 2 uM) was 1.6. For the same compound, the “Firefly, F4, 1% FBS, cmpd/DMSO (mean)” value (NR2F6; 1% FBS, 10 uM) was 5.5, the “Firefly, F4, 1% FBS, cmpd/DMSO (mean)” value (NR2F6; 1% FBS, 40 uM) was 0.2 and the “Firefly, F4, 10% FBS, cmpd/DMSO (mean)” value (NR2F6; 10% FBS, 0.5 uM) was 1.3. The “Firefly, F4, 10% FBS, cmpd/DMSO (mean)” value (NR2F6; 10% FBS, 2 uM) was 1.4, the “Firefly, F4, 10% FBS, cmpd/DMSO (mean)” value (NR2F6; 10% FBS, 10 uM) was 6.5 and the “Firefly, F4, 10% FBS, cmpd/DMSO (mean)” value (NR2F6; 10% FBS, 40 uM) was 3.1. The “Activity, cmpd/DMSO” value (NR2F6) was 6.2, the “Firefly LBD, cmpd/DMSO (mean)” value (NR2F6 LBD; 0.5 uM) was 1.1 and the “Firefly LBD, cmpd/DMSO (mean)” value (NR2F6 LBD; 2 uM) was 2.1. The “Firefly LBD, cmpd/DMSO (mean)” value (NR2F6 LBD; 10 uM) was 3.2 and the “Firefly LBD, cmpd/DMSO (mean)” value (NR2F6 LBD; 40 uM) was 0.2.
